Measurements from article PMC13379085 (PLOS Neglected Tropical Diseases, 2026).
Converted amounts (≈) assume the structure as drawn. Like-named read-outs stand apart in the source and are kept apart here.

Tests used:
LV82 L. donovani = experiment: Giemsa staining of intracellular L. donovani in BMDMs from wildtype C57BL/6 or lysozyme knockout mice; type: cell-based, Leishmania donovani; conditions: 72-hour incubation
From the text: B6.129P2-Lyz2^tm1(cre)Ifo/J mice (stock #004781, herein termed ‘Lys K/O’) were obtained from Jackson Laboratory. This strain has a nuclear-localized Cre recombinase inserted into the first coding ATG of the lysozyme 2 gene (Lyz2) which eliminates endogenous Lyz2 gene function. Wildtype C57BL6/J mice (stock #000664) were obtained as a control.
Bone marrow derived macrophages (BMDMs) were isolated from both mice and cultured as described above in “Image-based Evaluation of Intracellular Anti-Leishmanial Activity”. BMDMs were seeded onto glass cover slips, infected with LV82 L. donovani at a multiplicity of infection of 1:10. Cells were washed to remove extracellular promastigotes and treated with compounds (197, amphotericin B) for a 72-hour incubation. BMDM cells were then washed with phosphate buffered saline, fixed with ice-cold methanol, and stained with Giemsa (5% v/v in water). The cover slips with stained cells are mounted onto glass slides and imaged on EVOS XL (100X, Thermo Fisher Scientific). Leishmania amastigotes per 100 macrophages were determined in a blinded manner.

[1] = tested on: Extracellular L. donovani promastigotes; experiment: Resazurin viability assay of extracellular L. donovani promastigotes; type: cell-based, Leishmania donovani; conditions: for Extracellular L. donovani promastigotes MIC50: 72-hour incubation
Method: (§1) The effect of compounds on extracellular promastigotes was evaluated using a resazurin-based assay as described previously. In short, late log phase Leishmania promastigotes were seeded in a 96 well plate at 1 x 10^5 parasites per well and treated with drugs (0.5 – 200 µM) for 72 hours at 25°C. Ten microliters of Resazurin (0.02% w/v) were added to the treated parasites to achieve a final concentration of 0.002% w/v and incubated for 24 hours. Viability of the promastigotes was assessed by fluorescence (excitation 544 nm, emission 590 nm, SpectraMax M2, Molecular Devices).

[2] = tested on: Extracellular L. mexicana promastigotes; experiment: Resazurin viability assay of extracellular L. mexicana promastigotes; type: cell-based, Leishmania mexicana; conditions: Leishmania mexicana, 72-hour incubation
Method: as §1

THP-1 macrophages = experiment: MTT viability of THP-1 macrophages (host cell cytotoxicity); type: cell-based; conditions: for CC50: MTT assay
Method: Human monocytes, THP-1 (ATCC, TIB002) were used as host cells for Leishmania infection and to assess drug cytotoxicity. The cells were cultured at 37C, 5% CO2 in RPMI medium (ATCC) supplemented with 10% FBS, 1% Penicillin/Streptomycin and 0.05 mM of β-mercaptoethanol. Cells were used in experiments up to passage 10.
Effect of the compounds on THP-1 cell viability measured using thiazolyl blue tetrazolium bromide which measures cell metabolic activity (MTT). […] Macrophages were then treated with compounds resuspended in RPMI media (1–50 µM) for 24 hours. Media was replaced with thiazolyl blue tetrazolium bromide solubilized in RPMI media (0.5 mg/mL) and incubated at 37°C for 2 hours. The reduced formazan crystals were solubilized with isopropyl alcohol and the absorbance of the resulting solution was measured at 560 nm with a background subtraction at 670 nm. […] This process was repeated with a 72-hr incubation and extended concentration range (1–300 µM) for select compounds.

[3] = tested on: Intracellular L. donovani amastigotes; experiment: Luminescence-based assay of intracellular L. donovani burden in THP-1 macrophages; type: cell-based, Leishmania donovani; conditions: for Selectivity 24h LC50/ Lum IC50: host-directed effect vs cytotoxicity in THP-1; for IC50: THP1 macrophages, luminescence assay, 72 hours of treatment, read-out: Intracellular L. donovani amastigotes Lum IC50
Method: Luminescent strains, L. donovani LV82 expressing firefly luciferase (a kind gift from Dr. Abhay Satoskar, Ohio State University) and L. mexicana (NR-51210, ATCC) expressing renilla luciferase were used to evaluate the effect of the compounds in intracellular and extracellular conditions. Wild-type L. donovani LV82 (ATCC) were used for Giemsa staining based experiments. All parasites were cultured at 25°C and 5% CO2 in M199 media (Corning) supplemented with 10% FBS, 1% Penicillin/Streptomycin, and Hemin (0.01 mg/mL), and used in experiments up to passage 15.
THP-1 cells were seeded in a 96 well plate (25,000 cells/well) overnight then differentiated with 150 nM phorbol 12-myristate 13-acetate (PMA) over 72 hours (S1 Fig). […] Briefly, promastigotes of a known cell density were resuspended in RPMI media (with 10% FBS, 1% P/S and 0.05 mM β-mercaptoethanol) and incubated with adhered THP-1 cells over 18 hours. After infection, cells were washed three times with fresh media to remove extracellular promastigotes.
Infected macrophages were then treated with compounds solubilized in DMSO ranging from 0.1-10 µM in concentrations. After 72 hours of treatment, the viability of the amastigotes within macrophages was determined using Promega firefly luminescence assay (Cat E1500) or Pierce Renilla luciferase assay (Cat 16166) for L. donovani and L. mexicana strains, respectively. Briefly, media was removed, and cells were lysed with the assay lysis buffer. The luciferase substrate was then incubated with the lysed cells for 10 min at room temperature and luminescence of live Leishmania was measured in a white opaque 96 well plate using a Biotek plate reader.

L. donovani = conditions: cited from earlier work
[4] = tested on: Intracellular L. mexicana amastigotes; experiment: microbe, parasite or virus in culture; type: cell-based, Leishmania mexicana; conditions: Leishmania mexicana, Macrophage, 72 h, bone marrow derived macrophages, Giemsa staining, 72-hour incubation
Method: (§2) Bone marrow derived macrophages (BMDMs) were isolated from BALB/c mice and cultured as previously described. […] Completely differentiated BMDMs are obtained after 7 days of culture with media change every 2 days. Harvested cells are seeded onto 10 mm glass cover slips at 5 x 10^5 cells/ well of a 24 well plate in DMEM media (without LCM) and allowed to adhere overnight. BMDM cells are then infected overnight with LV82 L. donovani or L. mexicana (NR-51210) at a multiplicity of infection of 10. After infection, cells were washed three times with fresh media to remove extracellular promastigotes and treated with compounds for a 72-hour incubation. BMDM cells were then washed with phosphate buffered saline, fixed with ice-cold methanol, and stained with Giemsa (5% v/v in water). The cover slips with stained cells are mounted onto glass slides and imaged on EVOS XL (100X, Thermo Fisher Scientific). Leishmania amastigotes per 100 macrophages were determined in a blinded manner.

[5] = tested on: Intracellular L. donovani amastigotes; experiment: Image-based Giemsa staining of intracellular L. donovani in bone marrow derived macrophages; type: cell-based, Leishmania donovani; conditions: 72-hour incubation
Method: as §2

[6] = 72-hour incubation, read-out: 72 hr viability of THP-1 macrophages LC50
[7] = read-out: 24 hr viability of THP-1 macrophages 24h LC50, 24-hour incubation

SMILES | Extracellular L. donovani promastigotes MIC50 [1] [µM] | IC50 [5] [µM] | CC50 (THP-1 macrophages; [6]) [µM] | CC50 (THP-1 macrophages; [7]) [µM] | IC50 [3] [µM] | further results
C[C@@H]1[C@H](O)[C@@H](C)/C=C/C=C/C=C/C=C/C=C/C=C/C=C/[C@H](O[C@@H]2O[C@H](C)[C@@H](O)[C@H](N)[C@@H]2O)C[C@@H]2O[C@](O)(C[C@@H](O)C[C@@H](O)[C@H](O)CC[C@@H](O)C[C@@H](O)CC(=O)O[C@H]1C)C[C@H](O)[C@H]2C(=O)O [Amphotericin B, reference compound] |  |  |  |  |  | anti-leishmanial activity in WT and Lys K/O BMDMs (LV82 L. donovani): retained its anti-leishmanial activity in both WT and Lys K/O BMDMs
N#Cc1cccc(CN2CCC(Nc3ccc(-n4nc(C(F)(F)F)cc4-c4ccc(-c5ccc(C(F)(F)F)cc5)cc4)cc3)C2)c1 (stereo not drawn) [Compound 53] |  |  |  |  |  | direct effects on extracellular promastigote viability ([1]; for 53 strain not specified): no direct effects; MIC50 [2]: > 200 µM; reduction in macrophage viability (THP-1 macrophages; 72 hr incubation up to 300µM): Neither compound had any reduction; Selectivity 24h LC50/ Lum IC50 [3]: >112.6
NCC(=O)Nc1ccc(-n2nc(C(F)(F)F)cc2-c2ccc3c(ccc4ccccc43)c2)cc1 [AR-12, reference compound] |  |  |  |  |  | direct effect on the promastigote (L. donovani): no direct effect; parasite burden of L. donovani in infected macrophages (L. donovani; in vitro and in vivo): decrease the parasite burden; MIC50 [2]: 15.1 µM (≈ 6.95 µg/mL); IC50 [4]: 1.5 µM
NCC(=O)Nc1ccc(-n2ccnc2-c2ccc(-c3ccc(C(F)(F)F)cc3)cc2)cc1 [Compound 158] | 4.6 | 0.6 | 16.5 | 16 | 0.2 | intracellular activity (primary screen) ([3]; imidazole series): retaining potent intracellular activity
N#Cc1ccc(CNCC(=O)Nc2ccc(-n3nc(C(F)(F)F)cc3C3CCCCC3)cc2)cc1 [Compound 354] |  |  |  |  |  | MIC50 [2]: 30.7 µM (≈ 14.8 µg/mL); IC50 [4]: 3.5 µM; Selectivity 24h LC50/ Lum IC50 [3]: 44.9
N[C@H]1CCN(c2ccc(-n3nc(C(F)(F)F)cc3-c3ccc(-c4ccc(C(F)(F)F)cc4)cc3)cc2)C1 [Compound 130] | 2.1 | 1.6 | 6.4 | 4.2 | 0.2 | 
NCC(=O)Nc1ccc(-n2cc(C(F)(F)F)nc2-c2ccc(-c3ccccc3)cc2)cc1 [Compound 50] | 14.6 | 9.1 | 42.7 | 23.5 | 1.5 | 
O=C(Nc1ccc(-n2cc(C(F)(F)F)nc2-c2ccc(-c3ccccc3)cc2)cc1)C1CCN(Cc2ccccc2)C1 (stereo not drawn) [Compound 86] | 3.2 | 0.6 | 8.2 | 21.9 | 1.4 | 
Nc1ccc(CNC2CCN(c3ccc(-n4nc(C(F)(F)F)cc4-c4ccc(-c5ccc(C(F)(F)F)cc5)cc4)cc3)C2)cc1 (stereo not drawn) [Compound 23] | 4.0 | 0.9 | 6.9 | 5.8 | 0.4 | 
Oc1ccc(CNC2CCN(c3ccc(-n4nc(C(F)(F)F)cc4C4CCCCC4)cc3)CC2)cc1 [Compound 319] | 0.8 | 3.4 | 7.2 | 6.4 | 0.8 | 
FC(F)(F)c1ccc(-c2ccc(-c3cc(C(F)(F)F)nn3-c3ccc(NC4CCNC4)cc3)cc2)cc1 (racemic) [Compound 25] | 2.1 | 2.5 | 6.3 | 28.9 | 0.7 | 
NC1CCN(c2ccc(-n3nncc3-c3ccc(C(F)(F)F)cc3)cc2)C1 (stereo not drawn) [Compound 134] |  |  |  |  |  | MIC50 [2]: 16.5 µM (≈ 6.16 µg/mL); IC50 [4]: 0.8 µM; Selectivity 24h LC50/ Lum IC50 [3]: 42.1
N[C@@H]1CCN(c2ccc(-n3nc(C(F)(F)F)cc3-c3ccc(-c4ccc(C(F)(F)F)cc4)cc3)cc2)C1 [Compound 129] | 1.7 | 0.4 | 6.2 | 6.3 | 0.1 | 
CC(C)(C)C#Cc1ccc(-c2cc(C(F)(F)F)nn2-c2ccc(N3CCNCC3)cc2)cc1 [Compound 44] | 1.9 | 1 | 14.5 | 7.4 | 0.9 | 
Oc1ccccc1CN1CCC(Nc2ccc(-n3nc(C(F)(F)F)cc3-c3ccc(-c4ccc(C(F)(F)F)cc4)cc3)cc2)C1 (stereo not drawn) [Compound 91] | 56.3 | 2.4 | 53.4 | > 50 | 1.4 | 
